Measurements as given in ChEMBL document CHEMBL1201862, “PubChem BioAssay data set” (2004).
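Results reflect a 48-hour exposure of cells in 96-well plates to compound at five concentrations. GI50 = concentration required for 50% inhibition of growth.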 Active and inactive are the calls of the source. Rule as the data show it: active = GI50 up to about 1.1 µM and inactive = higher.

Legend:
Assay in all cases: DTP human tumour cell line panel, 48 h
786-0 = tested on: 786-0
CCRF-CEM = tested on: CCRF-CEM
HL-60 = tested on: HL-60
HT-29 = tested on: HT-29
K562 = tested on: K562
LOX IMVI = tested on: LOX IMVI
M14 = tested on: M14
Malme-3M = tested on: Malme-3M
NCI-H23 = tested on: NCI-H23
NCI-H460 = tested on: NCI-H460
SF-295 = tested on: SF-295
SK-MEL-28 = tested on: SK-MEL-28
SK-OV-3 = tested on: SK-OV-3
SNB-19 = tested on: SNB-19
SNB-75 = tested on: SNB-75
SR = tested on: SR
SW-620 = tested on: SW-620
UACC-257 = tested on: UACC-257

Row | SMILES | GI50 (786-0) | GI50 (CCRF-CEM) | GI50 (HL-60) | GI50 (HT-29) | GI50 (K562) | GI50 (LOX IMVI) | GI50 (M14) | GI50 (Malme-3M) | GI50 (NCI-H23) | GI50 (NCI-H460) | GI50 (SF-295) | GI50 (SK-MEL-28) | GI50 (SK-OV-3) | GI50 (SNB-19) | GI50 (SNB-75) | GI50 (SR) | GI50 (SW-620) | GI50 (UACC-257)
1 | CCSc1nc2sc(C)c(C)c2c(=O)n1-c1ccc(C(=O)O)cc1 | > 100 µM (inactive) | 52.5 µM (inactive) | 35.3 µM (inactive) | 61 µM (inactive) | 55.5 µM (inactive) | 56.2 µM (inactive) | > 100 µM (inactive) | > 100 µM (inactive) | 38.3 µM (inactive) | 60.1 µM (inactive) | 40.9 µM (inactive) | 54.5 µM (inactive) | > 100 µM (inactive) | 31.1 µM (inactive) | 13.6 µM (inactive) | 41.4 µM (inactive) | > 100 µM (inactive) | 98.4 µM (inactive)
2 | Cc1cnc2ccc(C)c([N+](=O)[O-])c2c1NCCCN(C)C | > 100 µM (inactive) | > 100 µM (inactive) | > 100 µM (inactive) | > 100 µM (inactive) | > 100 µM (inactive) | > 100 µM (inactive) | > 100 µM (inactive) | > 100 µM (inactive) | > 100 µM (inactive) | > 100 µM (inactive) | > 100 µM (inactive) | > 100 µM (inactive) | > 100 µM (inactive) | > 100 µM (inactive) | – | > 100 µM (inactive) | > 100 µM (inactive) | > 100 µM (inactive)
3 | O=C(c1ccccc1)N1C2CCC1C(C(F)(F)F)=C2C(F)(F)F | > 100 µM (inactive) | > 100 µM (inactive) | 45.7 µM (inactive) | > 100 µM (inactive) | > 100 µM (inactive) | > 100 µM (inactive) | > 100 µM (inactive) | > 100 µM (inactive) | > 100 µM (inactive) | > 100 µM (inactive) | > 100 µM (inactive) | – | > 100 µM (inactive) | > 100 µM (inactive) | > 100 µM (inactive) | > 100 µM (inactive) | > 100 µM (inactive) | > 100 µM (inactive)
4 | Cc1ccc(Nc2nc(C)c(C(/C=C/c3ccc(/C=C/C(=N/NC(=O)C[n+]4ccccc4)c4sc(Nc5ccc(C)cc5[N+](=O)[O-])nc4C)cc3)=N\NC(=O)C[n+]3ccccc3)s2)c([N+](=O)[O-])c1 | > 100 µM (inactive) | 32.3 µM (inactive) | 27.4 µM (inactive) | > 100 µM (inactive) | 81.3 µM (inactive) | 73.3 µM (inactive) | > 100 µM (inactive) | > 100 µM (inactive) | > 100 µM (inactive) | > 100 µM (inactive) | > 100 µM (inactive) | > 100 µM (inactive) | > 100 µM (inactive) | > 100 µM (inactive) | 33.5 µM (inactive) | 67.3 µM (inactive) | > 100 µM (inactive) | > 100 µM (inactive)
5 | COc1ccc2c3c(c(C(=O)O)oc13)C(CCC(=O)O)CC2 (centres undefined) | > 100 µM (inactive) | – | – | > 100 µM (inactive) | – | > 100 µM (inactive) | > 100 µM (inactive) | – | > 100 µM (inactive) | > 100 µM (inactive) | > 100 µM (inactive) | > 100 µM (inactive) | > 100 µM (inactive) | > 100 µM (inactive) | > 100 µM (inactive) | – | > 100 µM (inactive) | > 100 µM (inactive)
6 | CCOCc1cc(=O)c2cc3c(cc2o1)OC(C)(C)CC3 | > 100 µM (inactive) | > 100 µM (inactive) | 61.2 µM (inactive) | > 100 µM (inactive) | 97.5 µM (inactive) | > 100 µM (inactive) | > 100 µM (inactive) | > 100 µM (inactive) | > 100 µM (inactive) | > 100 µM (inactive) | 93.8 µM (inactive) | – | > 100 µM (inactive) | > 100 µM (inactive) | > 100 µM (inactive) | 72.3 µM (inactive) | > 100 µM (inactive) | 65.3 µM (inactive)
7 | COc1cc([C@@H]2c3cc4c(cc3[C@@H](NCc3ccc(C#N)cc3)C3COC(=O)[C@@H]32)OCO4)cc(OC)c1O (some centres undefined) | 0.632 µM (active) | 0.233 µM (active) | 0.116 µM (active) | 1.19 µM (inactive) | 1.54 µM (inactive) | 0.778 µM (active) | 1.1 µM (active) | 1.01 µM (active) | 0.317 µM (active) | 0.0344 µM (active) | 0.533 µM (active) | 2.33 µM (inactive) | 0.989 µM (active) | 0.621 µM (active) | 0.628 µM (active) | – | 0.766 µM (active) | 4.76 µM (inactive)
8 | Cc1cc(N(CCC#N)CCC#N)ccc1/N=N/c1ccccc1[N+](=O)[O-] | > 100 µM (inactive) | > 100 µM (inactive) | > 100 µM (inactive) | > 100 µM (inactive) | > 100 µM (inactive) | > 100 µM (inactive) | > 100 µM (inactive) | > 100 µM (inactive) | > 100 µM (inactive) | – | > 100 µM (inactive) | > 100 µM (inactive) | > 100 µM (inactive) | – | 34 µM (inactive) | – | > 100 µM (inactive) | > 100 µM (inactive)
9 | COc1cc(C(=O)N2CCc3c([nH]c4c([N+](=O)[O-])c(OC)ccc34)C2C)cc(OC)c1OC (centres undefined) | > 100 µM (inactive) | > 100 µM (inactive) | > 100 µM (inactive) | > 100 µM (inactive) | > 100 µM (inactive) | > 100 µM (inactive) | > 100 µM (inactive) | – | > 100 µM (inactive) | > 100 µM (inactive) | > 100 µM (inactive) | > 100 µM (inactive) | – | > 100 µM (inactive) | 40.8 µM (inactive) | > 100 µM (inactive) | > 100 µM (inactive) | > 100 µM (inactive)
10 | CCCCCCCCSC(=O)NCCCC | 38.1 µM (inactive) | 28.2 µM (inactive) | 18.7 µM (inactive) | 26.4 µM (inactive) | 38.2 µM (inactive) | 19.9 µM (inactive) | 25.8 µM (inactive) | 24.5 µM (inactive) | 49.7 µM (inactive) | 34 µM (inactive) | 38.5 µM (inactive) | 29 µM (inactive) | > 100 µM (inactive) | 34.6 µM (inactive) | 24.6 µM (inactive) | – | 75.3 µM (inactive) | –
11 | CC(C)C12Cc3c(ccc4ccccc34)OC1(C)Oc1ccc3ccccc3c1C2 (centres undefined) | > 100 µM (inactive) | > 100 µM (inactive) | – | > 100 µM (inactive) | > 100 µM (inactive) | > 100 µM (inactive) | > 100 µM (inactive) | > 100 µM (inactive) | > 100 µM (inactive) | > 100 µM (inactive) | > 100 µM (inactive) | – | > 100 µM (inactive) | > 100 µM (inactive) | > 100 µM (inactive) | > 100 µM (inactive) | > 100 µM (inactive) | –
12 | CCOC(=O)C(=O)Nc1cc(Cl)c(Cl)cc1Cl | > 100 µM (inactive) | – | – | > 100 µM (inactive) | > 100 µM (inactive) | > 100 µM (inactive) | > 100 µM (inactive) | > 100 µM (inactive) | > 100 µM (inactive) | > 100 µM (inactive) | > 100 µM (inactive) | > 100 µM (inactive) | > 100 µM (inactive) | > 100 µM (inactive) | > 100 µM (inactive) | – | > 100 µM (inactive) | > 100 µM (inactive)
13 | NNC(=O)N/N=C1\CN(c2ccc(Cl)cc2Cl)C(=O)C(=O)C1c1nc2ccccc2o1 (centres undefined) | > 100 µM (inactive) | > 100 µM (inactive) | – | > 100 µM (inactive) | > 100 µM (inactive) | – | > 100 µM (inactive) | > 100 µM (inactive) | 85.5 µM (inactive) | > 100 µM (inactive) | – | > 100 µM (inactive) | > 100 µM (inactive) | > 100 µM (inactive) | > 100 µM (inactive) | > 100 µM (inactive) | > 100 µM (inactive) | > 100 µM (inactive)
14 | O=C1Nc2ccccc2Nc2nc3cccccc-3c21 | > 100 µM (inactive) | > 100 µM (inactive) | > 100 µM (inactive) | > 100 µM (inactive) | > 100 µM (inactive) | > 100 µM (inactive) | > 100 µM (inactive) | > 100 µM (inactive) | > 100 µM (inactive) | > 100 µM (inactive) | > 100 µM (inactive) | > 100 µM (inactive) | > 100 µM (inactive) | > 100 µM (inactive) | > 100 µM (inactive) | > 100 µM (inactive) | > 100 µM (inactive) | –
15 | NCCNCc1c2ccccc2c(CNCCN)c2ccccc12 | 13.3 µM (inactive) | 15.4 µM (inactive) | 20.4 µM (inactive) | 6.21 µM (inactive) | 7.59 µM (inactive) | – | 16.3 µM (inactive) | 14 µM (inactive) | 13.1 µM (inactive) | 6.97 µM (inactive) | 17.4 µM (inactive) | > 10 µM (inactive) | – | – | – | 4.18 µM (inactive) | 11.1 µM (inactive) | 16.4 µM (inactive)
16 | Cc1cc(C)c(C(=O)O)c(N)c1O | > 100 µM (inactive) | > 100 µM (inactive) | > 100 µM (inactive) | > 100 µM (inactive) | > 100 µM (inactive) | > 100 µM (inactive) | > 100 µM (inactive) | > 100 µM (inactive) | > 100 µM (inactive) | – | > 100 µM (inactive) | > 100 µM (inactive) | > 100 µM (inactive) | > 100 µM (inactive) | > 100 µM (inactive) | > 100 µM (inactive) | > 100 µM (inactive) | > 100 µM (inactive)
17 | CS(=O)(=O)OCCn1cnc2nc(NC(=O)c3ccccc3)[nH]c(=O)c21 | > 100 µM (inactive) | > 100 µM (inactive) | > 100 µM (inactive) | > 100 µM (inactive) | > 100 µM (inactive) | > 100 µM (inactive) | > 100 µM (inactive) | > 100 µM (inactive) | – | > 100 µM (inactive) | > 100 µM (inactive) | > 100 µM (inactive) | > 100 µM (inactive) | > 100 µM (inactive) | > 100 µM (inactive) | > 100 µM (inactive) | > 100 µM (inactive) | > 100 µM (inactive)
